US20120028837A1, “RAPID SCREEN FOR REPRODUCTIVE TOXICANTS” (PRESIDENT AND FELLOWS OF HARVARD COLLEGE, priority 2010, published 2012)

Legend:
C. elegans = conditions: in vivo, 4 days, 1 mM
Experimental: To address whether BPA also affects C. elegans reproduction, worms were exposed to various concentrations of BPA under several culture conditions. The parameters tested were: BPA concentration (100 uM, 500 uM or 1 mM), vehicle (DMSO or ethanol), cholesterol concentration (5 ug/ml, 0.5 ug/ml or none) and culture method (liquid or plate).
Growing Conditions and Drug Exposures. Worms were cultured according to [23] at 20° C. on NGM plates without cholesterol. […] Exposure was carried from embryogenesis to adulthood by plating sodium hypochloride treated eggs onto drug and control plates and incubated at 20° C. for four days.

C. elegans germline [1] = experiment: ATL-1 and p-CHK1 immunostaining (DNA damage checkpoint); format: in vivo
Source text: ATL-1, the C. elegans homologue of mammalian ATM and Rad3-related protein (ATR), accumulates to sites of persistent DSBs during meiosis, and together with CLK-2, acts as a sensor of germ-cell DNA damage which leads to phosphorylation of the checkpoint kinase CHK1 and ultimately apoptosis. To further examine the progression of DSB repair, the levels of ATL-1 and phosphorylated CHK1 (p-CHK1) were monitored throughout the gonad following exposure to BPA.

C. elegans germline [2] = conditions: in vivo
Source text: Synapsis and recombination are tightly linked events during pachytene throughout various species, as it is only in the context of a fully assembled SC that crossover recombination can be completed. Indeed, in C. elegans, null mutants of SC components such as syp-1, syp-2, syp-3, syp-4 and him-3, increased levels of RAD-51 foci formation and delayed kinetics of foci turnover are observed during pachytene. Consequently, there is activation of the DNA damage checkpoint leading to increased germ cell apoptosis. Recombination is an essential and highly regulated process for the exchange of information that takes place during prophase I [18]. As nuclei exit mitosis and progress through meiosis, programmed meiotic DNA double strand breaks (DSBs) are formed and processed by several DNA repair proteins including RAD-51 [25, 48]. […] As unrepaired recombination intermediates can trigger a DNA-damage checkpoint during pachytene leading to increased germ cell apoptosis, the number of apoptotic nuclei following BPA exposure was measured by Syto-12 staining. […]
Quantification of Germ Cell Apoptosis. Apoptotic germline nuclei were scored in young adults between 20 and 24 hours post-L4 using SYTO-12 (Invitrogen) and were processed as described in [26]. […] Both GFP positive and negative worms (heterozygous and homozygous for cep-1 respectively) were analyzed following BPA exposure. […]

in vivo = conditions: C. elegans
Experimental: The internal concentration of free BPA was measured by tandem HPLC analysis (Axys, BC, Canada) following an extensive number of physiological buffer washes and lysis of worms cultured on BPA plates (Materials an Methods).
xol-1::GFP worms = experiment: Lethality, chemical sensitivity of xol-1::GFP strain; format: in vivo, C. elegans; conditions: 100 μM, 500 μM and 1 mM, four days from eggs to adulthood, 25 worms
Experimental: The sensitivity of the xol-1::GFP, nx3 strain compared to the xol-1::GFP strain was assayed by exposing 25 worms for four days (from eggs to adulthood) to a range of concentration of Bisphenol A: 100 μM, 500 μM and 1 mM. The nx3 cuticle mutation was expected to confer increased sensitivity to BPA.

CC(C)(c1ccc(O)cc1)c1ccc(O)cc1 [BPA, Bisphenol A]
embryonic viability (C. elegans): 1.5 % of controls | reduction in the number of eggs laid (brood size) compared to vehicle (C. elegans): 4 fold | elevated RAD-51, ATL-1 or p-CHK1 staining in the mitotic germline nuclei (C. elegans germline [1]; BPA exposure): not observed | levels of ATL-1 signal on pachytene nuclei (C. elegans germline [1]; BPA treated vs control): significant increase | levels of p-CHK1 signal on pachytene nuclei (C. elegans germline [1]; BPA treated vs control): significant increase | apoptotic levels in a cep-1 mutant background (C. elegans germline [2]): reduced to normal levels | number of apoptotic nuclei compared to vehicle (C. elegans germline [2]): two to three-fold increase | concentration at 4 days, 1 mM (in vivo): 2000 ng/g | lethality (xol-1::GFP worms): 0%
